Experimental findings from patent US20250115591A1, “NOVEL SULFONAMIDE CARBOXAMIDE COMPOUNDS” (INFLAZOME LIMITED, priority 2017, published 2025) are described below.

pIC50: −log10 of the molar value. Where a name gives a salt, the structure may show the parent alone.

The target of test [1] is T1, NLRP3 (Homo sapiens (Human), UniProt Q96P20). Put plainly: THP-1 cells pyroptosis assay (LPS + nigericin, resazurin read-out). It counts as cell-based. The following applies: 1 μg/ml LPS, 5 μM nigericin. In short, it runs like this: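 LPS-primed (1 μg/ml) human THP-1 cells in serum-free RPMI were exposed to compound (8-point half-log series, top dose as printed "10M") for 3 h at 37 °C, then to nigericin 5 μM for 1 h. Remaining viability was read by resazurin (100 μM, 1-2 h) fluorescence, and IC50 came from 4-parameter variable-slope regression.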
T1 sequence (Q96P20 whole entry): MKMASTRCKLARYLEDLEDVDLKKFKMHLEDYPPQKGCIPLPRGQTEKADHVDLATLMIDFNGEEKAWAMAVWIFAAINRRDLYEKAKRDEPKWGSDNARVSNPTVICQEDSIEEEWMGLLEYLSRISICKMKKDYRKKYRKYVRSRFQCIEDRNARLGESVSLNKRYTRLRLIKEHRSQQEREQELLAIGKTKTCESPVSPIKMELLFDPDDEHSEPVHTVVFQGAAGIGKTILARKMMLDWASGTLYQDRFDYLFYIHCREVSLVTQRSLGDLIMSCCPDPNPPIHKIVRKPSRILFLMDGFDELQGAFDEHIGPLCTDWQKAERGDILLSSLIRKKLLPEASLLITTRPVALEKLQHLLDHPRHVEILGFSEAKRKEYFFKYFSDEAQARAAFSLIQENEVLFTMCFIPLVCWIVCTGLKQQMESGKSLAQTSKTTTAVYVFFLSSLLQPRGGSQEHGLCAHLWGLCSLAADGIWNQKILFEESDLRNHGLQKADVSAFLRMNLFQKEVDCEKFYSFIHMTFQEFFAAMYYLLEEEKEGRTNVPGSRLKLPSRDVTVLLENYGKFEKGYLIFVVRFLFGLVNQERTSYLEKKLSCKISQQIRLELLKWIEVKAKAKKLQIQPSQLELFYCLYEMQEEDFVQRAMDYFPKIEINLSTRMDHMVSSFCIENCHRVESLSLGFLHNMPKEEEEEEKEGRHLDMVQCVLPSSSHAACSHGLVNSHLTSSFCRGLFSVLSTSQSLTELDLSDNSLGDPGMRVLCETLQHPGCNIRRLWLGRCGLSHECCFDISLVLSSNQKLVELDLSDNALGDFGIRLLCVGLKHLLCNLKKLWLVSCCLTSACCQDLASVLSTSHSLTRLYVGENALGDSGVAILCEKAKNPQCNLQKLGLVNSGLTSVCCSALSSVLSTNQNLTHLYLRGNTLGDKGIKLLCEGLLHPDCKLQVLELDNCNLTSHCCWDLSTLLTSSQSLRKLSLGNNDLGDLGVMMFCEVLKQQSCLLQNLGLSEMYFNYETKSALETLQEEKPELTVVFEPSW
(Alamar Blue is a resazurin reagent that responds to reducing activity.)

The target in test [2] is T1, NLRP3. Put plainly: Human whole blood IL1β release assay (LPS + nigericin). The following applies: human whole blood, 1 μg/ml LPS, nigericin, IL-1β release; read-out: HWB IC50. It counts as cell-based. Here is the method: For systemic delivery, the ability to inhibit NLRP3 when the compounds are present within the bloodstream is of great importance. For this reason, the NLRP3 inhibitory activity of a number of compounds in human whole blood was investigated in accordance with the following protocol.
Human whole blood in Li-heparin tubes was obtained from healthy donors from a volunteer donor panel. • 1. Plate out 80 μl of whole blood containing 1 μg/ml of LPS in 96-well, clear bottom cell culture plate (Corning #3585) • 2. Add 10 μl compound (8 points half-log dilution with 10 μM top dose) or vehicle (DMSO 0.1% FAC) to the appropriate wells • 3. Incubate for 3 hrs at 37° C., 5% CO2 • 4. Add 10 μl nigericin (Sigma #N7143) ([…]) to all wells • 5. Incubate for 1 hr at 37° C., 5% CO2 • 6. At the end of the incubation period, spin plates at 30×g for 5 mins to pellet cells and remove 20 μl of supernatant and add to 96-well v-bottom plates for IL-1β analysis (note: these plates containing the supernatants can be stored at −80° C. to be analysed at a later date) • 7. IL-1β was measured according to the manufacturer protocol (Perkin Elmer-AlphaLisa IL-Kit A[220F-5000) • 8. IC50 data is fitted to a non-linear regression equation (log inhibitor vs response-variable slope 4-parameters)

Turning to `O=C(Nc1c2c(cc3c1CCC3)CCC2)NS(=O)(=O)C1CCN(C2CC2)C1` (stereo not shown) [Example 39, 1-Cyclopropyl-N-((1,2,3,5,6,7-hexahydro-s-indacen-4-yl)carbamoyl)pyrrolidine-3-sulfonamide, potassium salt], the pIC50 (as a rule, −log10 of the IC50, conventionally taken in molar units) was over 6.00 on NLRP3 [1] and 5.00 to 6.00 on NLRP3 [2].

In the case of `CN1CC(S(=O)(=O)NC(=O)Nc2c3c(cc4c2CCC4)CCC3)C1` [Example 49, N-((1,2,3,5,6,7-Hexahydro-s-indacen-4-yl)carbamoyl)-1-methylazetidine-3-sulfonamide, potassium salt], the pIC50 on NLRP3 [1] and at NLRP3 [2] was over 6.00 in each case.

In the case of `CCN1CC(S(=O)(=O)NC(=O)Nc2c3c(cc4c2CCC4)CCC3)C1` [Example 53, 1-Ethyl-N-((1,2,3,5,6,7-hexahydro-s-indacen-4-yl)carbamoyl) azetidine-3-sulfonamide, potassium salt], the pIC50 at NLRP3 [1] and on NLRP3 [2] was over 6.00 in each case.

With `CCC(CC)N1CC(S(=O)(=O)NC(=O)Nc2c3c(cc4c2CCC4)CCC3)C1` [Example 65, N-((1,2,3,5,6,7-Hexahydro-s-indacen-4-yl)carbamoyl)-1-(pentan-3-yl)azetidine-3-sulfonamide, potassium salt], the pIC50 at NLRP3 [1] and at NLRP3 [2] was over 6.00 in each case.

Consider `O=C(Nc1c2c(cc3c1CCC3)CCC2)NS(=O)(=O)C1CN(C(=O)OCc2ccccc2)C1` [Example 71, Benzyl 3-(N-((1,2,3,5,6,7-hexahydro-s-indacen-4-yl)carbamoyl)sulfamoyl)azetidine-1-carboxylate, potassium salt], for which the pIC50 at NLRP3 [1] is over 6.00; at NLRP3 [2], under 5.00.

Turning to `O=C(Nc1c2c(cc3c1CCC3)CCC2)NS(=O)(=O)C1CN(C2CCOCC2)C1` [Example 75, N-((1,2,3,5,6,7-Hexahydro-s-indacen-4-yl)carbamoyl)-1-(tetrahydro-2H-pyran-4-yl)azetidine-3-sulfonamide, potassium salt], the pIC50 at NLRP3 [1] and on NLRP3 [2] was over 6.00 throughout.

On to `O=C(Nc1c2c(cc3c1CCC3)CCC2)NS(=O)(=O)C1CN(Cc2cccnc2)C1` [Example 90, N-((1,2,3,5,6,7-Hexahydro-s-indacen-4-yl)carbamoyl)-1-(pyridin-3-ylmethyl)azetidine-3-sulfonamide, potassium salt], for which the pIC50 at NLRP3 [1] and at NLRP3 [2] was over 6.00 each time.

On to `O=C(Nc1c2c(cc3c1CCC3)CCC2)NS(=O)(=O)C1CN(CC(F)(F)F)C1` [Example 96, N-((1,2,3,5,6,7-Hexahydro-s-indacen-4-yl)carbamoyl)-1-(2,2,2-trifluoroethyl)azetidine-3-sulfonamide, potassium salt], for which the pIC50 on NLRP3 [1] is over 6.00; at NLRP3 [2], 5.00 to 6.00.

With `CC(C)CN1CC(S(=O)(=O)NC(=O)Nc2c3c(cc4c2CCC4)CCC3)C1` [Example 97, N-((1,2,3,5,6,7-Hexahydro-s-indacen-4-yl)carbamoyl)-1-isobutylazetidine-3-sulfonamide, potassium salt], the pIC50 at NLRP3 [1] and on NLRP3 [2] was over 6.00 throughout.

For `O=C(Nc1c2c(cc3c1CCC3)CCC2)NS(=O)(=O)C1CN(CC2COC2)C1` [Example 101, N-((1,2,3,5,6,7-Hexahydro-s-indacen-4-yl)carbamoyl)-1-(oxetan-3-ylmethyl)azetidine-3-sulfonamide, potassium salt], the pIC50 on NLRP3 [1] and on NLRP3 [2] was over 6.00 each time.

Take `O=C(Nc1c2c(cc3c1CCC3)CCC2)NS(=O)(=O)C1CN(Cc2ccncc2)C1` [Example 103, N-((1,2,3,5,6,7-Hexahydro-s-indacen-4-yl)carbamoyl)-1-(pyridin-4-ylmethyl)azetidine-3-sulfonamide, potassium salt]: the results for the pIC50 on NLRP3 [1] and at NLRP3 [2] were over 6.00 and 5.00 to 6.00, respectively.

With `O=C(Nc1c2c(cc3c1CCC3)CCC2)NS(=O)(=O)C1CN(Cc2cccnc2Br)C1` [Example 105, 1-((2-Bromopyridin-3-yl)methyl)-N-((1,2,3,5,6,7-hexahydro-s-indacen-4-yl)carbamoyl)azetidine-3-sulfonamide, potassium salt], the figures for the negative-log IC50 (pIC50) on NLRP3 [1] and on NLRP3 [2] were over 6.00 and under 5.00, respectively.

With `O=C(Nc1c2c(cc3c1CCC3)CCC2)NS(=O)(=O)C1CN(CCF)C1` [Example 108, 1-(2-Fluoroethyl)-N-((1,2,3,5,6,7-hexahydro-s-indacen-4-yl)carbamoyl)azetidine-3-sulfonamide, potassium salt], the pIC50 on NLRP3 [1] and on NLRP3 [2] was over 6.00 throughout.

As to `O=C(Nc1c2c(cc3c1CCC3)CCC2)NS(=O)(=O)C1CN(C2CCOC2)C1` (stereo not shown) [Example 121, N-((1,2,3,5,6,7-Hexahydro-s-indacen-4-yl)carbamoyl)-1-(tetrahydrofuran-3-yl)azetidine-3-sulfonamide, potassium salt], the pIC50 on NLRP3 [1] and on NLRP3 [2] was over 6.00 throughout.

As to `CCC(C)N1CC(S(=O)(=O)NC(=O)Nc2c3c(cc4c2CCC4)CCC3)C1` (stereo not shown) [Example 122, 1-(sec-Butyl)-N-((1,2,3,5,6,7-hexahydro-s-indacen-4-yl)carbamoyl)azetidine-3-sulfonamide, potassium salt], the pIC50 at NLRP3 [1] and at NLRP3 [2] was over 6.00 throughout.

In the case of `CC1(C)CCC1N1CC(S(=O)(=O)NC(=O)Nc2c3c(cc4c2CCC4)CCC3)C1` (stereo not shown) [Example 124, 1-(2,2-Dimethylcyclobutyl)-N-((1,2,3,5,6,7-hexahydro-s-indacen-4-yl)carbamoyl)azetidine-3-sulfonamide, potassium salt], the pIC50 was over 6.00 on NLRP3 [1] and 5.00 to 6.00 at NLRP3 [2].

`O=C(Nc1c2c(cc3c1CCC3)CCC2)NS(=O)(=O)C1CN(CC2CCC2)C1` [Example 126, 1-(Cyclobutylmethyl)-N-((1,2,3,5,6,7-hexahydro-s-indacen-4-yl)carbamoyl)azetidine-3-sulfonamide, potassium salt]: the pIC50 on NLRP3 [1] and at NLRP3 [2] was 5.00 to 6.00 each time.

Regarding `CC(CO)N1CC(S(=O)(=O)NC(=O)Nc2c3c(cc4c2CCC4)CCC3)C1` (stereo not shown) [Example 130, N-((1,2,3,5,6,7-Hexahydro-s-indacen-4-yl)carbamoyl)-1-(1-hydroxypropan-2-yl)azetidine-3-sulfonamide, potassium salt], the pIC50 at NLRP3 [1] and on NLRP3 [2] was over 6.00 throughout.

For the molecule `CC(C(F)F)N1CC(S(=O)(=O)NC(=O)Nc2c3c(cc4c2CCC4)CCC3)C1` (stereo not shown) [Example 131, 1-(1,1-Difluoropropan-2-yl)-N-((1,2,3,5,6,7-hexahydro-s-indacen-4-yl)carbamoyl)azetidine-3-sulfonamide, potassium salt], the pIC50 at NLRP3 [1] is over 6.00; on NLRP3 [2], 5.00 to 6.00.

Regarding `C#CCN1CC(S(=O)(=O)NC(=O)Nc2c3c(cc4c2CCC4)CCC3)C1` [Example 133, N-((1,2,3,5,6,7-Hexahydro-s-indacen-4-yl)carbamoyl)-1-(prop-2-yn-1-yl)azetidine-3-sulfonamide, potassium salt], the pIC50 on NLRP3 [1] and at NLRP3 [2] was over 6.00 throughout.

Regarding `O=C(Nc1c2c(cc3c1CCC3)CCC2)NS(=O)(=O)C1CN(CCCO)C1` [Example 134, N-((1,2,3,5,6,7-Hexahydro-s-indacen-4-yl)carbamoyl)-1-(3-hydroxypropyl)azetidine-3-sulfonamide, potassium salt], the pIC50 is over 6.00 at NLRP3 [1] and 5.00 to 6.00 on NLRP3 [2].

Consider `CC(C)(C)CN1CC(S(=O)(=O)NC(=O)Nc2c3c(cc4c2CCC4)CCC3)C1` [Example 135, N-((1,2,3,5,6,7-Hexahydro-s-indacen-4-yl)carbamoyl)-1-neopentylazetidine-3-sulfonamide, potassium salt], for which the pIC50 on NLRP3 [1] was over 6.00; on NLRP3 [2], 5.00 to 6.00.

On to `CC(O)CN1CC(S(=O)(=O)NC(=O)Nc2c3c(cc4c2CCC4)CCC3)C1` (stereo not shown) [Example 137, N-((1,2,3,5,6,7-Hexahydro-s-indacen-4-yl)carbamoyl)-1-(2-hydroxypropyl)azetidine-3-sulfonamide, potassium salt], for which the pIC50 was over 6.00 on NLRP3 [1] and 5.00 to 6.00 on NLRP3 [2].

Consider `O=C(Nc1c2c(cc3c1CCC3)CCC2)NS(=O)(=O)C1CN(CCCCO)C1` [Example 138, N-((1,2,3,5,6,7-Hexahydro-s-indacen-4-yl)carbamoyl)-1-(4-hydroxybutyl)azetidine-3-sulfonamide, potassium salt], for which the pIC50 on NLRP3 [1] and on NLRP3 [2] was over 6.00 each time.

As for `Cn1ccc(CN2CC(S(=O)(=O)NC(=O)Nc3c4c(cc5c3CCC5)CCC4)C2)cc1=O` [Example 141, N-((1,2,3,5,6,7-Hexahydro-s-indacen-4-yl)carbamoyl)-1-((1-methyl-2-oxo-1,2-dihydropyridin-4-yl)methyl)azetidine-3-sulfonamide, potassium salt], the pIC50 on NLRP3 [1] was over 6.00; on NLRP3 [2] it was 5.00 to 6.00.

As for `O=C(Nc1c2c(cc3c1CCC3)CCC2)NS(=O)(=O)C1CN(CC2CCOC2)C1` (stereo not shown) [Example 144, N-((1,2,3,5,6,7-Hexahydro-s-indacen-4-yl)carbamoyl)-1-((tetrahydrofuran-3-yl)methyl)azetidine-3-sulfonamide, potassium salt], the pIC50 at NLRP3 [1] is over 6.00; on NLRP3 [2] it was 5.00 to 6.00.
